Measurements reported in patent publication US10323026B2, “Heterocyclic compound” (Takeda Pharmaceutical Company Limited, priority 2016, dated 2019).
Like-named read-outs stand apart in the source and are kept apart here.

How the values were obtained:
[1] = biological target: T1, His-hMAGL (recombinant polyhistidine tagged human MAGL protein) (Homo sapiens, UniProt Q99685); assay: Measurement of MAGL inhibitory activity (RapidFire-mass spectrometry of arachidonic acid produced from 2-arachidonylglycerol); type: biochemical; details: read-out: % inhibition (10 μM)
T1 construct: polyhistidine (His) (N); made in house; host or cells: E. coli BL21(DE3)
T1 sequence (Q99685 1-303): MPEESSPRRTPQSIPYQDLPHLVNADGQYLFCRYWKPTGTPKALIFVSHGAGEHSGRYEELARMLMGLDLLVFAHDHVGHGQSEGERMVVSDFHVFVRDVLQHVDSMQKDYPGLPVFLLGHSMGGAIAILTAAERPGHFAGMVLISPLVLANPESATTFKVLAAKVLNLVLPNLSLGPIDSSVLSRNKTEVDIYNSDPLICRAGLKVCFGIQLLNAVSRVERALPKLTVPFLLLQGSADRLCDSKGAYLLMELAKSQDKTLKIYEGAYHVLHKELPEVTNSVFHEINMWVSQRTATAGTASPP
Outline: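 After quenching with acetonitrile containing 3 μM arachidonic acid-d8, the arachidonic acid formed was measured by online SPE RapidFire-MS/MS in negative SRM mode and corrected against the d8 standard. Inhibition (%) was calculated relative to compound-free and enzyme-free groups.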

[2] = test system: intracerebral 2-AG and arachidonic acid; assay: Measurement of intracerebral 2-AG and arachidonic acid concentrations; type: in vivo, mouse (C57BL/6J); details: for 2-AG concentration / arachidonic acid concentration: cerebrum of male C57BL/6J mice, 3 mg/kg body weight by gavage, isolated 1 hour after administration; for 2-AG concentration: control 9.9; for arachidonic acid concentration: control 163.5; for migration into brain / intracerebral 2-AG concentration compared to control / intracerebral arachidonic acid concentration compared to control: oral administration to C57BL/6J mice; for intracerebral 2-AG concentration compared to control / intracerebral arachidonic acid concentration compared to control: result in words
Experimental: As the mouse, 8-week-old male C57BL/6J mice (CLEA Japan, Inc.) were used (6 mice/group). Administration solutions were prepared by suspending the test compounds (compound 1 (compound of Example 6), compound 2 (compound of Example 93) and compound 3 (compound of Example 97)) in 0.5% methylcellulose solution (Wako Pure Chemical Industries, Ltd.). The dose of the test compound was prepared to be 3 mg/kg body weight/10 mL. The test compounds were administered by gavage at 3 mg/kg body weight. The cerebrum was isolated after the administration of the test compound (isolation time after the administration of the test compound is shown in Table 3), and the cerebrum hemisphere was extracted. The obtained cerebrum hemisphere was frozen on dry ice, and the frozen tissue weight was measured.
The cerebral tissue weight was measured, and cerebral tissue was homogenized with 4-fold (v/w) of isopropanol (IPA), and double diluted with IPA. To the diluted sample (200 μL) was added internal standard solution (5 μL) ([5,6,8,9,11,12,14,15-D8]-(5Z,8Z,11Z,14Z)5,8,11,14-eicosatetraenoic acid (AA-d8, 0.5 nmol/mL IPA) and [5,6,8,9,11,12,14,15-D8]-(5Z,8Z,11Z,14Z)-5,8,11,14-eicosatetraenoyl-2-glycerol ester (2-AG-d8, 0.5 nmol/mL IPA)), and the mixture was centrifuged at 15000 rpm for 5 min. The supernatant was injected to liquid chromatographymass spectrometer to perform quantitative analysis.
For liquid chromatography, Shimadzu LC20A system (Shimadzu Corporation) was used. The separation was performed by gradient elution method with mobile phase A (10 mmol/L HCOONH4/HCOOH (100:0.2, v/v)) and mobile phase B (ethanol/IPA (3:2, v/v)) using Shim-pack XR-ODS (2.2 μm, 2.0×30 mm, Shimadzu Corporation) at column temperature of 50° C., at flow rate of 0.5 mL/min. The gradient conditions are as follows: 0-1 min, 1% B; 1-1.2 min, 1-55% B; 1.2-2.7 min, 55-75% B; 2.7-3.5 min, 75-99% B; 3.5-6 min, 99% B; 6-8 min, 1% B.
For mass spectrometer, API5000 (AB SCIEX) was used. The eluate from the liquid chromatography was directly ionized by turbospray ionization method, where (5Z,8Z,11Z,14Z)5,8,11,14-eicosatetraenoic acid (AA) and AA-d8 were measured by negative ionization mode, and (5Z,8Z,11Z,14Z)5,8,11,14-eicosatetraenoyl-2-glycerol ester (2-AG) and 2-AG-d8 were measured by positive ionization mode.
A solution for calibration curve was prepared to the concentration of 2, 5, 10, 20, 50, 100, 200, 500, 1000 nmol/mL of acetonitrile. These solutions (10 μL) was mixed with 200 μL of IPA and 5 μL of internal standard solution, and the mixture was centrifuged at 15000 rpm for 5 min, and the supernatant was injected to liquid chromatography mass spectrometer to perform analysis. The calibration curve was drawn by regression line with a weighting of 1/x^2, and the quantitativity was confirmed by accuracy of 100±20% and R^2>0.99.

[3] = test compound 10 μM, His-hMAGL, substrate 2-arachidonylglycerol, 60 min preincubation

Structure (SMILES) | inhibition at 10 µM [1, 3] [%] | 2-AG concentration [2] [nmol/g] | arachidonic acid concentration [2] [nmol/g] | migration into brain [2] | intracerebral 2-AG concentration compared to control [2] | intracerebral arachidonic acid concentration compared to control [2] | inhibition at 10 µM [1] [%]
O=C1N[C@]2(CO1)C[C@H](C(=O)N1CC(OCc3ccc(C(F)(F)F)cc3F)C1)C2 [Example 6, (2s,4s)-2-((3-((2-fluoro-4-(trifluoromethyl)benzyl)oxy)azetidin-1-yl)carbonyl)-7-oxa-5-azaspiro[3.4]octan-6-one] | 100 | 124.5 | 31.7 | migrated into brain | increased significantly | decreased significantly | –
Cc1cc(C(F)(F)F)ccc1COC1CN(C(=O)[C@H]2C[C@]3(COC(=O)N3)C2)C1 [Example 93, (2s,4s)-2-((3-((2-methyl-4-(trifluoromethyl)benzyl)oxy)azetidin-1-yl)carbonyl)-7-oxa-5-azaspiro[3.4]octan-6-one] | 100 | 125.2 | 42.6 | migrated into brain | increased significantly | decreased significantly | –
Cc1ccc(COC2CN(C(=O)[C@H]3C[C@]4(COC(=O)N4)C3)C2)cc1Cl [Example 97, (2s,4s)-2-((3-((3-chloro-4-methylbenzyl)oxy)azetidin-1-yl)carbonyl)-7-oxa-5-azaspiro[3.4]octan-6-one] | – | 131.9 | 60.9 | migrated into brain | increased significantly | decreased significantly | 100
